Results: patent publication US8748598B2, “Analogs of 3-O-acetyl-11-keto-beta-boswellic acid” (Laila Nutraceuticals, priority 2004, dated 2014)

Key:
potato 5-lipoxygenase = test: 5-Lipoxygenase enzyme inhibitory activity; format: biochemical
Protocol: 5-Lipoxygenase enzyme inhibitory activity was measured using the method of Schewe et al. (Adv Enzymol, Vol 58, 191-272, 1986), modified by Reddanna et. al., (Methods of Enzymology, Vol 187, 268-277, 1990). The assay mixture contained 80 μM linoleic acid and sufficient amount of potato 5-lipoxygenase in 50 mM phosphate buffer (pH 6.3). The reaction was initiated by the addition of enzyme buffer mix to linoleic acid and the enzyme activity was monitored as the increase in absorbance at 234 nm. The reaction was monitored for 120 sec and the inhibitory potential of the test substances (29, 31, 33, 34, 35, 36, 39, 40, 43, 44, 46, 47, 48, 49, 50, 54, 57, 59, 62 & 63) was measured by incubating various concentrations of test substances two minutes before the addition of linoleic acid. All assays were performed three times. Percentage inhibition was calculated by comparing the slope of the curve obtained for test substances with that of the control.

MCF-7 = test: MTT cell proliferation assay, MCF-7; format: cell-based, human; details: for Inhibition of cell proliferation MCF-7 (IC50): three days
Protocol: (§1) MTT [3-(4,5-dimethylthiazol-2-yl)-2,5-diphenyltetrazolium bromide] incorporation based cell proliferation assay was performed as described previously (Reference). The cytotoxic efficacy of some analogs was evaluated in different cell lines by MTT cell proliferation assay kit (Roche Applied Sciences, Germany). The assay was carried out according to the instruction provided by the vendor. Briefly, in brief, equal numbers of cells was plated in 96-well flat-bottomed plates in 100 μl of medium and were exposed to different analogs selected from 1 to 63 at various concentrations up to 10 μg/ml for a period of three days. Vehicle control culture wells received only a maximum of 0.5% DMSO. Thereafter, 0.5 mg/ml of MTT reagent was added to each well and the microplate was incubated further for 4 h at 37° C. in presence of 5% CO2. Finally, the cells were solubilized by adding solubilizing solution and allowed to incubate at 37° C. overnight. After complete solubilization of the formazan crystals the absorbance was read at 540 nm in a microplate reader (BioRad, USA). The results (mean OD±SD) obtained from quadruplicate wells were used in calculation to determine the inhibition of cell proliferation (50% of inhibitory concentration, IC50) of the test compounds.
(§2) The cytotoxic properties of some analogs were evaluated by MTT incorporation assay. The methodology of the assay procedure was the same as mentioned in example 41.

A549 = test: MTT cell proliferation assay, A549; format: cell-based, human; details: Table 2; for Inhibition of cell proliferation A549 (IC50): three days
Protocol: as §1

B16 = test: MTT cell proliferation assay, B16; format: cell-based, mouse; details: Table 2; three days
Protocol: as §1

MDA-MB-231 = test: MTT cell proliferation assay, MDA-MB-231; format: cell-based, human; details: for Inhibition of cell proliferation MDA-MB-231 (IC50): Table 2, three days
Protocol: as §1, §2

A375 = test: MTT cell proliferation assay, A375; format: cell-based, human; details: Table 2; three days
Protocol: as §1

[1] = system: B16 F0 melanoma xenograft; test: B16 F0 melanoma xenograft model; format: in vivo, C57B6J mice; details: 75 mg/kg daily intra-peritoneal, twelve days
Protocol: In vivo efficacy of LI-51255 against melanoma growth was evaluated in B16 F0 melanoma xenograft model of C57B6J mice. C57B6J mice of 6 weeks age (body weight 18-22 g) were purchased from National Institute of Nutrition (NIN), Hyderabad (India). Animals study protocols were approved by Institutional Ethics Committee (IAEC). All the studies were performed in compliance with the Committee for the Purpose of Control and Supervision of Experiments on Animals (CPCSEA) guidelines and OECD guidelines. Animals were allowed free access to standard feed and provided charcoal filtered and UV exposed water ad libitum. The animals were maintained at a controlled temperature (24-26° C.), humidity (45-70%), and 12 h/12 h of light/dark cycle.
To induce the melanoma tumor formation, sub-confluent B16F0 cells were harvested by brief trypsinization and 1×10^6 cells were injected subcutaneously in 0.2 mL phosphate-buffered saline. Drug treatment was started after development of palpable tumors (3-5 days after implantation of the cells). Drugs were prepared in phosphate-buffered saline (10% DMSO, v/v) and either 75 mg/kg of DTIC or different doses of LI-51255 (10 or 20 mg/kg) was administered daily through intra-peritoneal route. Vehicle treated control animals received only 10% DMSO in phosphate buffered saline. After twelve days of treatment, the animals were sacrificed by CO2 inhalation and tumors were excised and weighed.

[2] = system: Freund's Adjuvant-induced arthritis in Wistar Albino rats; test: Freund's adjuvant-induced arthritis, paw edema; format: in vivo; details: 10 mg/kg daily oral for 30 days; edema 13 days after Freund's Adjuvant
Protocol: The Wistar Albino rats were divided into four groups with […] each group. The two treatment groups, each containing 6 animals, were orally supplemented with one of the two analogs namely glycinate of AKBA (10) or piperazine amide of AKBA (23) in 1% carbomethylcellulose (CMC) at a daily dose of 10 mg/kg for 30 days. The control group of animals received same volume of 1% CMC orally and a positive control group received 10 mg/kg daily dose of prednisolone for direct comparison. Following the 30 day treatment and one hour after the last dose all the animals were challenged with 0.1 mL of 1% solution of Freund's Adjuvant through a subcutaneous injection in the sub-plantar region of left hind paw. The paw volume was measured using a plethymograph. The difference between the paw volumes measured before and 13 days after the Freund's Adjuvant injection was taken as edema volume. The percentage inhibition was calculated by comparing the mean edema of the control group and treatment groups.

SMILES	% inhibition at 10 μg/ml (potato 5-lipoxygenase) [%]	% inhibition at 25 μg/ml (potato 5-lipoxygenase) [%]	Inhibition of cell proliferation B16 (IC50) (B16) [µg/mL]	Inhibition of cell proliferation MDA-MB-231 (IC50) (MDA-MB-231) [µg/mL]	IC50 values MDA-MB-231 (MDA-MB-231; Table 4)	Inhibition of cell proliferation MCF-7 (IC50) (MCF-7; Table 2) [µg/mL]	IC50 values MCF-7 (MCF-7; Table 4)	Inhibition of cell proliferation A549 (IC50) (A549) [µg/mL]	Inhibition of cell proliferation A375 (IC50) (A375) [µg/mL]	Inhibition of cell proliferation MCF-7, % at 10 ug/ml (MCF-7; Table 2, 10 ug/ml) [% at 10]	Percentage Inhibition of cell proliferation MCF-7 (MCF-7; Table 4, 10 μg/ml) [% at 10 μg/ml]	Inhibition of cell proliferation A549, % at 10 ug/ml (A549; 10 ug/ml) [% at 10]	Percentage Inhibition of cell proliferation MDA-MB-231 (MDA-MB-231; Table 4, 10 μg/ml) [% at 10 μg/ml]	% reduction of tumor burden (w.r.t control) [1] [%]	Average weight of tumor [1] [gm]	% reduction of tumor burden (w.r.t control) ([1]; listed as Dacarbazine) [%]	inhibition of paw edema [2] [%]
CC(=O)O[C@@H]1CC[C@@]2(C)C(CC[C@]3(C)C2C(=O)C=C2C4[C@@H](C)[C@H](C)CC[C@]4(C)CC[C@]23C)[C@@]1(C)C(=O)NCCCCCCN (stereo partly drawn) [Analog 33]	24.66	52.98	9.1	–	–	–	–	–	–	36	36	24	–	–	–	–	–
CC(=O)O[C@@H]1CC[C@@]2(C)C(CC[C@]3(C)C2C(=O)C=C2C4[C@@H](C)[C@H](C)CC[C@]4(C)CC[C@]23C)[C@@]1(C)C(=O)NCCCCN (stereo partly drawn) [Analog 34]	16.31	29.40	3.84	6.38	IC50 at 6.38 μg/ml	13.7	IC50 at 13.7 μg/ml	10.5	4.12	–	–	–	–	–	–	–	–
CN(C)/N=N/c1[nH]cnc1C(N)=O [DTIC, Dacarbazine, reference compound]	–	–	–	–	–	–	–	–	–	–	–	–	–	33.613	4.175	33.6	–
C[C@]12C=CC(=O)C=C1CC[C@@H]1[C@@H]2[C@@H](O)C[C@@]2(C)[C@H]1CC[C@]2(O)C(=O)CO [prednisolone, reference compound]	–	–	–	–	–	–	–	–	–	–	–	–	–	–	–	–	16.8

Second part, led by results:

% inhibition at 10 μg/ml (potato 5-lipoxygenase) [%]	% inhibition at 25 μg/ml (potato 5-lipoxygenase) [%]	Inhibition of cell proliferation B16 (IC50) (B16) [µg/mL]	Inhibition of cell proliferation MDA-MB-231 (IC50) (MDA-MB-231) [µg/mL]	IC50 values MDA-MB-231 (MDA-MB-231; Table 4)	Inhibition of cell proliferation MCF-7 (IC50) (MCF-7; Table 2) [µg/mL]	IC50 values MCF-7 (MCF-7; Table 4)	Inhibition of cell proliferation A549 (IC50) (A549) [µg/mL]	Inhibition of cell proliferation A375 (IC50) (A375) [µg/mL]	SMILES	Inhibition of cell proliferation MCF-7, % at 10 ug/ml (MCF-7; Table 2, 10 ug/ml) [% at 10]	Percentage Inhibition of cell proliferation MCF-7 (MCF-7; Table 4, 10 μg/ml) [% at 10 μg/ml]	Inhibition of cell proliferation A549, % at 10 ug/ml (A549; 10 ug/ml) [% at 10]	Percentage Inhibition of cell proliferation MDA-MB-231 (MDA-MB-231; Table 4, 10 μg/ml) [% at 10 μg/ml]	% reduction of tumor burden (w.r.t control) [1] [%]	Average weight of tumor [1] [gm]	% reduction of tumor burden (w.r.t control) ([1]; listed as Dacarbazine) [%]	inhibition of paw edema [2] [%]
24.92	52.48	2.82	5.14	IC50 at 5.14 μg/ml	9.7	IC50 at 9.7 μg/ml	5.86	2.76	CC(=O)O[C@@H]1CC[C@@]2(C)C(CC[C@]3(C)C2C(=O)C=C2C4[C@@H](C)[C@H](C)CC[C@]4(C)CC[C@]23C)[C@@]1(C)C(=O)NCCCCCCCN (stereo partly drawn) [Analog 35]	–	–	–	–	–	–	–	–
17.83	34.40	2.44	3.4	IC50 at 3.4 μg/ml	8.7	IC50 at 8.7 μg/ml	4.78	2.75	C[C@@H]1CC[C@]2(C)CC[C@]3(C)C(=CC(=O)C4[C@@]5(C)CC[C@@H](O)[C@](C)(C(=O)N6CCOCC6)C5CC[C@]43C)C2[C@H]1C (stereo partly drawn) [Analog 36]	–	–	–	–	–	–	–	–
22.78	54.18	4.35	4.98	–	12.5	–	6.83	3.53	CC(=O)O[C@@H]1CC[C@@]2(C)C(CC[C@]3(C)C2C(=O)C=C2C4[C@@H](C)[C@H](C)CC[C@]4(C)CC[C@]23C)[C@@]1(C)C(=O)NCCNC=O (stereo partly drawn) [Analog 48]	–	–	–	8.8	–	–	–	–
